Reference: US8221736B2, “Semiochemical” (Rothamsted Research Limited, priority 1999, dated 2012)
Marks after values point to notes of the source that are not given here.

Key:
[1] = test system: hop aphid, Phorodon humuli; assay: Preliminary field trials, yellow water traps, hop aphid summer morphs; assay type: in vivo; details: slow release 2.05 μg/day/trap; P<0.04
[2] = test system: seven-spot ladybird, Coccinella seplempunclata; assay: Olfactometer assay with seven-spot ladybird; assay type: in vivo; details: 0.5 μl microcaps, position noted every 2 min for 20 min, 8 replicates; control arms 2.4±0.69; P<0.005
Description: Since semiochemicals acting as repellents or inhibitors of host attractancy for herbivorous insects are often involved in predation or parasitism, the activity of cis-jasmone was also investigated at higher trophic levels. […] These experiments indicate a behavioural role for cis-jasmone in influencing interactions between plants, herbivorous insects and their predators and parasitoids. Apparatus and methodology were similar to that employed for aphids (above). The test compound was applied in 0.5 μl microcaps (Drummond Sci. Co.) at the end of one of the side arms and each arm was supplied with moist filter paper to minimize differences in relative humidity. Individual C. septempunctata were introduced into the centre of the arena and their positions noted every 2 min for 20 min. The experiment was replicated 8 times and results analysed as above.

[3] = test system: aphid parasitoid Aphidius ervi; assay: Wind tunnel single choice test of A. ervi with synthetic compounds on filter paper; assay type: in vivo; details: 10 μg on filter paper, hexane control 26.7
Description: Since semiochemicals acting as repellents or inhibitors of host attractancy for herbivorous insects are often involved in predation or parasitism, the activity of cis-jasmone was also investigated at higher trophic levels. […] These experiments indicate a behavioural role for cis-jasmone in influencing interactions between plants, herbivorous insects and their predators and parasitoids. Naive female A. ervi were flown in a wind tunnel, as described in J. Chem. Ecol. 16, 381-396 (1996) (Poppy et al.). The parasitoids were released 25 cm downwind (single choice tests) or 40 cm downwind (dual choice test) of the target, which was either a plant or a synthetic compound (10 μg in 10 μl hexane) placed on a 2×1 cm strip of filter paper (Whatman No. 1) surrounded by a ring of green crêpe paper. The proportions of parasitoids responding with an oriented flight to the synthetic chemicals were calculated each day on 3 separate days. These values were then subjected to a logit transformation to normalize the data before being analysed by ANOVA followed by Tukey post-hoc tests. The number of parasitoids orienting upwind to the single plant target were recorded and subjected to a χ^2 contingency test (Pearson method on Genstat—see Genstat 5 Committee. Genstat 5 Reference Manual, Release 3 (Clarendon Press, Oxford, 1993)) to determine whether an orienting response was linked to the type of plant treatment. The numbers orienting to each plant in the dual choice test were analysed by a χ^2 to determine whether one plant was more attractive than the other.

[4] = test system: broad bean, V. faba (cv The Sutton); assay: Induction of volatile release by bean plants (air entrainment, GC/GC-MS); assay type: in vivo, Vicia faba; details: 24 hour exposure at 100 μg/l in air; from some replicates
Experimental: A possible role for the compound as an airborne plant signal was investigated using the broad bean, V. faba (cv The Sutton). Plants were kept for 24 hours in clean air or in air incorporating cis-jasmone at 100 μg/l; subsequently, samples of volatiles released by the plants were obtained by entrainment over 4 periods of 48 hours, i.e. up to 192 hours after the end of the treatment. The cis-jasmone itself was undetectable after 48 hours. […] There was also, from some replicates, enhancement of (E,E)-α-farnesene, (−)-β-caryophyllene and (E)-4,8-dimethyl-1,3,7-nonatriene. These compounds have all been implicated in herbivorous insect-induced production and increased parasitoid foraging. The nonatriene can also be produced innately by plants imitating damage for defence against herbivores and which are thus attractive to parasitoids.
Bean plants, V. faba (cv The Sutton) were grown under standard glasshouse conditions until the 2-4 leaf stage when they were rinsed free of soil and transplanted into baked glass jars containing washed sand, with 3 plants per jar. These were left for 1-2 days to acclimatize. Plants to be treated (three jars of three plants each) were sealed in a 25 l glass tank for 24 hours with either cis-jasmone or methyl jasmonate (2.5 mg) applied to a piece of filter paper (Whatman No. 1) placed on the floor of the tank. […]

[5] = test system: D251 sequence in Vicia faba plants; assay: Differential display and northern blot of gene-specific sequence D251; assay type: in vivo; details: northern blot, versus air
Experimental: Total RNA was isolated from stem or leaf tissue of plants exposed to air, methyl jasmonate or cis-jasmone. 10 μg RNA per sample was loaded and separated on a formaldehyde gel (Panel A). The samples were then transferred to a nylon membrane and probed with the D251 sequence (Panel B). Lane 1=air treatment (control); lane 2=cis-jasmone treatment; lane 3=methyl jasmonate treatment. In the case of RNA isolated from leaf tissue, only cis-jasmone treatment results in upregulation. In order to determine if cis-jasmone was capable of inducing alterations in plant gene expression, the sensitive technique of differential display was carried out on RNA extracted from plants which had been exposed to air, methyl jasmonate or cis-jasmone. […] To confirm this observation, bands of interest were recovered by excision from the dried gel and re-amplified with the appropriate pair of oligonucleotide primers. The resulting PCR products were cloned and sequenced to confirm the homogeneous nature of the amplified product. These sequences were then used to probe RNA isolated from control or treated V. faba plants. […] It is important to note that the nature of the differential display technique generates short gene-specific probes, containing mainly 3′ untranslated regions of transcribed sequences, and therefore the functional part of the differentially expressed gene is unknown. Thus, using differential display and confirmatory northern blotting, we have shown that methyl jasmonate and cis-jasmone have apparently distinct effects on plant gene expression. […] Thus, the two compounds have distinct effect on plant gene expression and the response to these signalling compounds may be tissue-specific.

## CC/C=C\CC1=C(C)CCC1=O [cis-jasmone]
[1]
  reduction of catches in water traps with visual (yellow) attractancy: 40%
[2]
  mean number of observations in the treated arm: 4.1±1.55
[3]
  % showing oriented flight: 53.1^a %
[4]
  release of (E,E)-α-farnesene, (−)-β-caryophyllene and (E)-4,8-dimethyl-1,3,7-nonatriene: enhancement
[5]; RNA from leaf tissue of plants exposed to vapour
  expression of D251 sequence in leaf tissue: upregulated
[5]; RNA from stem tissue of plants exposed to vapour
  expression of D251 sequence in stem tissue: upregulated to a similar level
